Columns and labels:
[1] = tested on: AD patient fibroblasts ND41001; assay: Rescue of AD patient fibroblasts from BSO plus iron-induced oxidative stress, ND41001; format: cell-based; settings: Homo sapiens, Fibroblast
Protocol: (§1) An initial screen was performed to identify the effectiveness of compounds for the amelioration of PD and AD. Test samples and solvent controls were tested for their ability to rescue PD and AD fibroblasts stressed by addition of L-buthionine-(S,R)-sulfoximine (BSO, a specific inhibitor of GSH synthetase) plus iron (e.g. iron citrate), in a similar manner as that described in Jauslin et al., Hum. Mol. Genet. 11(24):3055 (2002), Jauslin et al., FASEB J. 17:1972-4 (2003), and International Patent Application WO 2004/003565. This specific BSO-mediated cell death was prevented or ameliorated by administration of compounds described herein.
(§2) The AD experiments were performed as follows. PD experiments were performed in a similar manner; certain specific conditions are noted below in Table 1A.
(§3) MEM (a medium enriched in amino acids and vitamins) and Medium 199 (M199) with Earle's Balanced Salts (EBS), without phenol red, were purchased from Invitrogen. Fetal Calf Serum was obtained from Corning. […]
(§4) 100 microliters of Calcein AM (1 microM) in PBS+Ca+Mg was then added to each well. […] After that time fluorescence (excitation/emission wavelengths of 485 nm and 525 nm, respectively) was read on a Spectramax fluorescence reader. Data were analyzed using standard four-parameter curve fit algorithms (XLFit or Prism) to determine the EC50 concentration for each compound.

[2] = tested on: AD patient fibroblasts AG11414; assay: Rescue of AD patient fibroblasts from BSO plus iron-induced oxidative stress, AG11414; format: cell-based; settings: Homo sapiens, Fibroblast
Protocol: as §1, §2, §3, §4

[3] = Solvent screening for recrystallization (solubility of C9); format: physicochemical; settings: for Hot to RT result: allowed to cool to RT; for RT to Cold result: cooled to 0° C.; for Hot Result: heated to approximately 45-50° C.
Protocol: 100 mg of C9 was placed in test tubes and solvent added and any change noted. Samples were then heated briefly with a heat gun (heating to approximately 45-50° C.), the solubility noted, allowed to cool to RT and solubility noted, then cooled to 0° C. and the solubility noted.

[4] = tested on: AD patient fibroblasts ND34730; assay: Rescue of AD patient fibroblasts from BSO plus iron-induced oxidative stress, ND34730; format: cell-based; settings: Homo sapiens, Fibroblast
Protocol: as §1, §2, §3, §4

[5] = tested on: AD patient fibroblasts AG04402; assay: Rescue of AD patient fibroblasts from BSO plus iron-induced oxidative stress, AG04402; format: cell-based; settings: Homo sapiens, Fibroblast
Protocol: as §1, §2, §3, §4

[6] = Iron citrate (50 μM) + BSO (50 μM)
[7] = Iron citrate (100 μM) + BSO (25 μM)
[8] = Iron citrate (100 μM) + BSO (100 μM)
[9] = Iron citrate (200 μM) + BSO (100 μM)
[10] = 70% IPA/H2O, approx conc. 100 mg/mL
[11] = 80% EtOH, approx conc. 50 mg/mL
[12] = 80% EtOH, approx conc. 100 mg/mL
[13] = 95% EtOH, approx conc. 100 mg/mL

With `CCCCCCCCCC1=C(C)C(=O)C(C)=C(C)C1=O` [Compound C9, 2,3,5-trimethyl-6-nonylcyclohexa-2,5-diene-1,4-dione] the EC50 [1, 6] was 13 nM, the EC50 [1, 7] was 17 nM and the EC50 [2, 8] was 11 nM. The EC50 [2, 9] was 23 nM, the RT result [3, 10] was “slightly” and the “Hot to RT result” value [3, 10] was “slightly soluble”. The “RT to Cold result” value [3, 10] was “slightly soluble-”, the “Hot Result” value [3, 10] was “mostly” and the RT result [3, 11] was “partially”. The “Hot to RT result” value [3, 11] was “partially”, the “RT to Cold result” value [3, 11] was “slightly” and the “Hot Result” value [3, 11] was “melted”. The RT result [3, 12] was “partially”, the “Hot to RT result” value [3, 12] was “partially soluble” and the “RT to Cold result” value [3, 12] was “slightly soluble”. For the same compound, the “Hot Result” value [3, 12] was “melted”, the RT result [3, 13] was “partially” and the “Hot to RT result” value [3, 13] was “partially soluble”. The “RT to Cold result” value [3, 13] was “mostly insoluble”, the “Hot Result” value [3, 13] was “soluble” and the RT result ([3]; EtOH, approx conc. 100 mg/mL) was “partially”. The “Hot to RT result” value ([3]; EtOH, approx conc. 100 mg/mL) was “slightly soluble”, the “RT to Cold result” value ([3]; EtOH, approx conc. 100 mg/mL) was “partially soluble-” and the “Hot Result” value ([3]; EtOH, approx conc. 100 mg/mL) was “soluble”. The RT result ([3]; IPA, approx conc. 100 mg/mL) was “soluble”, the “Hot to RT result” value ([3]; IPA, approx conc. 100 mg/mL) was “soluble” and the “RT to Cold result” value ([3]; IPA, approx conc. 100 mg/mL) was “partially soluble-”. The “Hot Result” value ([3]; IPA, approx conc. 100 mg/mL) was “soluble”, the RT result ([3]; MeCN, approx conc. 100 mg/mL) was “soluble” and the “Hot to RT result” value ([3]; MeCN, approx conc. 100 mg/mL) was “soluble”. The “RT to Cold result” value ([3]; MeCN, approx conc. 100 mg/mL) was “mostly soluble-”, the “Hot Result” value ([3]; MeCN, approx conc. 100 mg/mL) was “soluble” and the RT result ([3]; MeOH, approx conc. 100 mg/mL) was “slightly”. For the same compound, the “Hot to RT result” value ([3]; MeOH, approx conc. 100 mg/mL) was “slightly soluble”, the “RT to Cold result” value ([3]; MeOH, approx conc. 100 mg/mL) was “insoluble-long needles” and the “Hot Result” value ([3]; MeOH, approx conc. 100 mg/mL) was “soluble”. The RT result ([3]; THF, approx conc. 100 mg/mL) was “soluble”, the “Hot to RT result” value ([3]; THF, approx conc. 100 mg/mL) was “soluble” and the “RT to Cold result” value ([3]; THF, approx conc. 100 mg/mL) was “soluble”. The “Hot Result” value ([3]; THF, approx conc. 100 mg/mL) was “soluble”, the RT result ([3]; water, approx conc. 10 mg/mL) was “insoluble” and the “Hot to RT result” value ([3]; water, approx conc. 10 mg/mL) was “insoluble”. The “RT to Cold result” value ([3]; water, approx conc. 10 mg/mL) was “insoluble”, the “Hot Result” value ([3]; water, approx conc. 10 mg/mL) was “insoluble” and the EC50 [4, 6] was 15 nM. It also gave an EC50 [4, 7] of 24 nM, an EC50 [5, 8] of 5 nM and an EC50 [5, 9] of 12 nM.

Source: US20230339835A1, “2,3,5-TRIMETHYL-6-NONYLCYCLOHEXA-2,5-DIENE-1,4-DIONE FOR SUPPRESSING AND TREATING ALPHA-SYNUCLEINOPATHIES, TAUOPATHIES, AND OTHER DISORDERS” (PTC THERAPEUTICS, INC., priority 2018, published 2023)
